Assay results taken from PubChem BioAssay AID1259407 (Chemical Carcinogenesis Research Information System (CCRIS), 2018).
Calls of active or inactive are those of the source. No rule for the calls is given here.

System: CCRIS mutagenicity, Ames/micronucleus/aberration tests
Assay: CCRIS mutagenicity studies
[1] = Test System: AMES SALMONELLA TYPHIMURIUM, Strain/Indicator: TA98, Metabolic Activation: NONE, Method: STANDARD PLATE
[2] = Test System: AMES SALMONELLA TYPHIMURIUM, Strain/Indicator: TA98, Metabolic Activation: RAT, LIVER, S-9, AROCLOR 1254, Method: STANDARD PLATE
[3] = Test System: AMES SALMONELLA TYPHIMURIUM, Strain/Indicator: TA100, Metabolic Activation: NONE, Method: STANDARD PLATE
[4] = Test System: AMES SALMONELLA TYPHIMURIUM, Strain/Indicator: TA100, Metabolic Activation: RAT, LIVER, S-9, AROCLOR 1254, Method: STANDARD PLATE
[5] = Test System: AMES SALMONELLA TYPHIMURIUM, Strain/Indicator: TA98, Metabolic Activation: NONE, Method: PREINCUBATION
[6] = Test System: AMES SALMONELLA TYPHIMURIUM, Strain/Indicator: TA100, Metabolic Activation: NONE, Method: PREINCUBATION
[7] = Test System: AMES SALMONELLA TYPHIMURIUM, Strain/Indicator: TA1535, Metabolic Activation: NONE, Method: PREINCUBATION
[8] = Test System: AMES SALMONELLA TYPHIMURIUM, Strain/Indicator: TA1537, Metabolic Activation: NONE, Method: PREINCUBATION

Measured: mutagenic call

CC(F)(F)F
inactive: Test System: AMES SALMONELLA TYPHIMURIUM, Strain/Indicator: TA97, Metabolic Activation: NONE, Method: STANDARD PLATE inactive; negative | Test System: AMES SALMONELLA TYPHIMURIUM, Strain/Indicator: TA97, Metabolic Activation: RAT, LIVER, S-9, AROCLOR 1254, Method: STANDARD PLATE inactive; negative | [1] inactive; negative | [2] inactive; negative | [3] inactive; negative | [4] inactive; negative | Test System: AMES SALMONELLA TYPHIMURIUM, Strain/Indicator: TA1535, Metabolic Activation: NONE, Method: STANDARD PLATE inactive; negative | Test System: AMES SALMONELLA TYPHIMURIUM, Strain/Indicator: TA1535, Metabolic Activation: RAT, LIVER, S-9, AROCLOR 1254, Method: STANDARD PLATE inactive; negative | Test System: AMES SALMONELLA TYPHIMURIUM, Strain/Indicator: TA1538, Metabolic Activation: NONE, Method: STANDARD PLATE inactive; negative | Test System: AMES SALMONELLA TYPHIMURIUM, Strain/Indicator: TA1538, Metabolic Activation: RAT, LIVER, S-9, AROCLOR 1254, Method: STANDARD PLATE inactive; negative | Test System: E. COLI, Strain/Indicator: WP2 UVRA (PKM101), Metabolic Activation: NONE, Method: STANDARD PLATE inactive; negative | Test System: E. COLI, Strain/Indicator: WP2 UVRA (PKM101), Metabolic Activation: RAT, LIVER, S-9, AROCLOR 1254, Method: STANDARD PLATE inactive; negative

CNC(=O)N(C)c1nc2ccccc2s1
inactive: [1] inactive; negative | [2] inactive; negative | [3] inactive; negative | [4] inactive; negative

C=CCc1ccc(OC)c(OC)c1
inactive: Test System: AMES SALMONELLA TYPHIMURIUM, Strain/Indicator: TA98, Metabolic Activation: HAMSTER, LIVER, S-9, AROCLOR 1254, Method: PREINCUBATION inactive; negative | [5] inactive; negative | Test System: AMES SALMONELLA TYPHIMURIUM, Strain/Indicator: TA98, Metabolic Activation: RAT, LIVER, S-9, AROCLOR 1254, Method: PREINCUBATION inactive; negative | Test System: AMES SALMONELLA TYPHIMURIUM, Strain/Indicator: TA100, Metabolic Activation: HAMSTER, LIVER, S-9, AROCLOR 1254, Method: PREINCUBATION inactive; negative | [6] inactive; negative | Test System: AMES SALMONELLA TYPHIMURIUM, Strain/Indicator: TA100, Metabolic Activation: RAT, LIVER, S-9, AROCLOR 1254, Method: PREINCUBATION inactive; negative | Test System: AMES SALMONELLA TYPHIMURIUM, Strain/Indicator: TA1535, Metabolic Activation: HAMSTER, LIVER, S-9, AROCLOR 1254, Method: PREINCUBATION inactive; negative | [7] inactive; negative | Test System: AMES SALMONELLA TYPHIMURIUM, Strain/Indicator: TA1535, Metabolic Activation: RAT, LIVER, S-9, AROCLOR 1254, Method: PREINCUBATION inactive; negative | Test System: AMES SALMONELLA TYPHIMURIUM, Strain/Indicator: TA1537, Metabolic Activation: HAMSTER, LIVER, S-9, AROCLOR 1254, Method: PREINCUBATION inactive; negative | [8] inactive; negative | Test System: AMES SALMONELLA TYPHIMURIUM, Strain/Indicator: TA1537, Metabolic Activation: RAT, LIVER, S-9, AROCLOR 1254, Method: PREINCUBATION inactive; negative

CC[C@H](C)[C@@H]1NC(=O)[C@H](CCCNC(=N)N)NC(=O)[C@H](CC(=O)O)NC(=O)[C@H](CCSC)NC(=O)[C@H](CCCNC(=N)N)NC(=O)CNC(=O)CNC(=O)[C@H](Cc2ccccc2)NC(=O)[C@@H](NC(=O)[C@H](CO)NC(=O)[C@H](CO)NC(=O)[C@H](CCCNC(=N)N)NC(=O)[C@H](CCCNC(=N)N)NC(=O)[C@H](CC(C)C)NC(=O)[C@@H](N)CO)CSSC[C@@H](C(=O)N[C@@H](CC(N)=O)C(=O)N[C@@H](CO)C(=O)N[C@@H](Cc2ccccc2)C(=O)N[C@@H](CCCNC(=N)N)C(=O)N[C@@H](Cc2ccc(O)cc2)C(=O)O)NC(=O)CNC(=O)[C@H](CC(C)C)NC(=O)CNC(=O)[C@H](CO)NC(=O)[C@H](CCC(N)=O)NC(=O)[C@H](C)NC(=O)CNC1=O
inactive: [5] inactive; negative | Test System: AMES SALMONELLA TYPHIMURIUM, Strain/Indicator: TA98, Metabolic Activation: S-9, Method: PREINCUBATION inactive; negative | [6] inactive; negative | Test System: AMES SALMONELLA TYPHIMURIUM, Strain/Indicator: TA100, Metabolic Activation: S-9, Method: PREINCUBATION inactive; negative | [7] inactive; negative | Test System: AMES SALMONELLA TYPHIMURIUM, Strain/Indicator: TA1535, Metabolic Activation: S-9, Method: PREINCUBATION inactive; negative | [8] inactive; negative | Test System: AMES SALMONELLA TYPHIMURIUM, Strain/Indicator: TA1537, Metabolic Activation: S-9, Method: PREINCUBATION inactive; negative | Test System: E. COLI, Strain/Indicator: WP2 UVRA, Metabolic Activation: NONE, Method: PREINCUBATION inactive; negative | Test System: E. COLI, Strain/Indicator: WP2 UVRA, Metabolic Activation: S-9, Method: PREINCUBATION inactive; negative
